Laboratory results from ChEMBL document CHEMBL1151273, “Cytotoxic furostanol saponins and a megastigmane glucoside from tribulus parvispinus” (J Nat Prod, 2005).
Activity calls are given as the source filed them. The rule behind the calls is not given here.

Columns and labels:
U-937 [1] = assay: Induction of apoptosis in human U937 cells assessed as total LDH activity at IC50 by spectrophotometric method; assay type: functional
HepG2 = assay: Cytotoxicity against human HepG2 cells after 48 hrs by acid phosphatase method; assay type: functional, cell-based; settings: HepG2, 48 h
MCF7 = assay: Cytotoxicity against human MCF7 cells after 48 hrs by acid phosphatase method; assay type: functional, cell-based; settings: MCF7, 48 h
U-937 [2] = assay: Cytotoxicity against human U937 cells after 48 hrs by WST1 test; assay type: functional, cell-based; settings: U-937, 48 h
U-937 [3] = assay: Induction of apoptosis in human U937 cells assessed as hypodiploid region at IC50 measured by propidium iodide incorporation by flow cytometry; assay type: functional
U-937 [4] = assay: Cytotoxicity against human U937 cells assessed as reduction of proliferation at 0.1 uM after 24 hrs; assay type: functional, cell-based
U-937 [5] = assay: Cytotoxicity against human U937 cells assessed as reduction of proliferation at 0.1 uM after 48 hrs; assay type: functional, cell-based
U-937 [6] = assay: Cytotoxicity against human U937 cells assessed as reduction of proliferation at 0.5 uM after 24 hrs; assay type: functional, cell-based

Compound | Activity (U-937 [1]) [%] | IC50 (HepG2) [µM] | IC50 (MCF7) [µM] | IC50 (U-937 [2]) [µM] | Activity (U-937 [3]) [%] | Activity (U-937 [4]) | Activity (U-937 [5]) | Activity (U-937 [6])
CO[C@]1(CC[C@@H](C)CO[C@@H]2O[C@H](CO)[C@@H](O)[C@H](O)[C@H]2O)O[C@H]2C[C@H]3[C@@H]4CC[C@H]5C[C@@H](O[C@@H]6O[C@H](CO)[C@H](O[C@@H]7O[C@H](CO)[C@@H](O)[C@H](O[C@@H]8OC[C@@H](O)[C@H](O)[C@H]8O)[C@H]7O[C@@H]7O[C@H](CO)[C@H](O)[C@H](O)[C@H]7O)[C@H](O)[C@H]6O)[C@H](O)C[C@]5(C)[C@H]4CC[C@]3(C)[C@H]2[C@@H]1C [22-O-METHYLPARVISPINOSIDE A] | 38 | 30 | 50 | 1 | 9 | – | – | –
CO[C@]1(CC[C@@H](C)CO[C@@H]2O[C@H](CO)[C@@H](O)[C@H](O)[C@H]2O)O[C@H]2C[C@H]3[C@@H]4CC[C@H]5C[C@@H](O[C@@H]6O[C@H](CO)[C@H](O[C@@H]7O[C@H](CO)[C@@H](O)[C@H](O[C@@H]8OC[C@@H](O)[C@H](O)[C@H]8O)[C@H]7O[C@@H]7O[C@H](CO)[C@H](O)[C@H](O)[C@H]7O)[C@H](O)[C@H]6O)CC[C@]5(C)[C@H]4CC[C@]3(C)[C@H]2[C@@H]1C [22-O-METHYLPARVISPINOSIDE B] | 50 | 30 | 40 | 2 | 3 | – | – | –
C[C@@H]1CC[C@@]2(OC1)O[C@H]1C[C@H]3[C@@H]4CC[C@H]5C[C@@H](O[C@@H]6O[C@H](CO)[C@H](O[C@@H]7O[C@H](CO)[C@@H](O)[C@H](O[C@@H]8OC[C@@H](O)[C@H](O)[C@H]8O)[C@H]7O[C@@H]7O[C@H](CO)[C@H](O)[C@H](O)[C@H]7O)[C@H](O)[C@H]6O)CC[C@]5(C)[C@H]4CC[C@]3(C)[C@H]1[C@@H]2C [GITONIN] | 25 | 3 | 3 | 0.1 | 20 | Active | Active | –
C[C@H](CC[C@@]1(O)O[C@H]2C[C@H]3[C@@H]4CC[C@H]5C[C@@H](O[C@@H]6O[C@H](CO)[C@H](O[C@@H]7O[C@H](CO)[C@@H](O)[C@H](O[C@@H]8OC[C@@H](O)[C@H](O)[C@H]8O)[C@H]7O[C@@H]7O[C@H](CO)[C@H](O)[C@H](O)[C@H]7O)[C@H](O)[C@H]6O)[C@H](O)C[C@]5(C)[C@H]4CC[C@]3(C)[C@H]2[C@@H]1C)CO[C@@H]1O[C@H](CO)[C@@H](O)[C@H](O)[C@H]1O [PARVISPINOSIDE A] | 28 | > 100 | > 100 | 30 | 32 | – | – | –
C[C@H](CC[C@@]1(O)O[C@H]2C[C@H]3[C@@H]4CC[C@H]5C[C@@H](O[C@@H]6O[C@H](CO)[C@H](O[C@@H]7O[C@H](CO)[C@@H](O)[C@H](O[C@@H]8OC[C@@H](O)[C@H](O)[C@H]8O)[C@H]7O[C@@H]7O[C@H](CO)[C@H](O)[C@H](O)[C@H]7O)[C@H](O)[C@H]6O)CC[C@]5(C)[C@H]4CC[C@]3(C)[C@H]2[C@@H]1C)CO[C@@H]1O[C@H](CO)[C@@H](O)[C@H](O)[C@H]1O [PARVISPINOSIDE B] | 27 | > 100 | 94 | 0.5 | 26 | – | Active | Active
CC1=CC(=O)CC(C)(C)[C@@]1(O)/C=C/C(O)CO[C@@H]1O[C@H](CO)[C@@H](O)[C@H](O)[C@H]1O (stereo not given in full) [PARVISPINOSIDE C] | – | > 100 | 80 | 15 | – | – | – | –
Oc1ccc(/C=C/c2cc(O)cc(O)c2)cc1 [RESVERATROL] | – | 50 | 100 | 17 | – | – | – | –
